Consider 4 compounds from patent publication US9682114B2, “Plant extracts of Ptaeroxylon obliquum nand compounds having antimicrobial and antihelminthic activity” (UNIVERSITY OF PRETORIA, priority 2013, dated 2017).

By MIC is commonly meant the least concentration at which growth counts as inhibited. In general, MFC refers to the smallest concentration meeting the test's criterion for killing the fungus. As usually defined, the CC50 is the concentration that lowers cell viability or growth by half.

Series [1] relates to Candida albicans standard strain (ATCC 10231) and clinical isolates. As to the kind of experiment: Broth micro-dilution assay, minimal inhibitory concentration (MIC). The series is classed as cell-based. For orientation: In broth dilution the organism is exposed to a series of concentrations in liquid medium.
Series [2] deals with adhesion of C. albicans to human buccal epithelial cells. Briefly: Adhesion assay of C. albicans to human buccal epithelial cells (HBEC). The format is cell-based, Candida albicans / human. The following applies: 1-h exposure. The procedure:
Preparation of Yeast and Buccal Epithelial Cells
For preparation of yeast and buccal epithelial cells the methods of Taweechaisupapong et al., 2005 were used with some modification.
C. albicans standard strain (ATCC 10231) and clinical isolates were maintained on Sabouraud-dextrose agar and grown in the yeast phase in Sabouraud-dextrose broth for this study. The organisms were washed three times in normal saline (NSS) by centrifugation at 5000 rpm for 10 minutes and finally suspended in NSS to 4×10^7 cells/ml (MacFarlane standard 1).
Human buccal epithelial cells (HBEC) were collected from healthy individual subjects by gently scraping the cheek mucosa with a sterile wooden spatula. To minimize individual variations, HBEC from the twenty healthy individuals were pooled in 10 ml of sterile NSS (Sandin et al., 1987). The pooled HBEC suspension was washed three times in NSS by centrifugation at 5000 rpm for 10 minutes to eliminate debris and loosely attached micro-organisms. Washed epithelial cells were confirmed to have no attached yeast before the adherence test. The HBEC was then re-suspended in NSS to a concentration of 9×10^8 cells/ml (by haemocytometer) and used immediately for the adhesion assay. The cells were collected at the same time of day on each occasion to minimize any possible effect of diurnal variations of HBEC on yeast adherence.
Adhesion of C. albicans standard strain (ATCC 10231) and clinical isolates to HBEC was determined as follows: 0.2 ml of P. obliquum acetone leaf extract was serially two-fold diluted with normal saline (NSS) in tubes. Tubes containing 0.2 ml of amphotericin B and NSS served as positive and negative controls, respectively. 0.1 ml of HBEC and 0.1 ml of the yeast suspension prepared as described previously were added to each tube, mixed gently and incubated at 37° C. for 1 hour with gentle agitation. The suspension was then diluted in 1 ml of sterile NSS.
The cells were filtered through a 12 μm pore size polycarbonate filter (Millipore), and washed twice with 15 ml of sterile NSS to remove unattached fungi. Each filter was carefully removed with forceps and placed on a glass slide with the HBEC against the glass surface. After 30 s, the filter was gently removed; leaving the HBEC adhered to the glass slide. The slides were air-dried, fixed with methanol and stained with Gram's dye. The number of yeast cells adhering to 100 HBEC was determined by counting in a light microscopy (Nikon Trans microscope) at ×400 magnification and photographed with a Nixon digital camera DXM 1200 F.
The adhesion assay is a modification of a method previously described by Kimura and Pearsall (1978) and by Taweechaisupapong et al. (2005).
The numbers of fungi adhering per 100 human buccal epithelial cells were counted and the percentage reduction was determined as follows: crude plant extract concentration divided by the control (yeast+HBEC)×100 minus 100=% reduction.

Series [3] concerns Candida albicans standard strain (ATCC 10231) and clinical isolates. As to the kind of experiment: Minimal fungicidal concentration (MFC) assay. The format is cell-based. The following applies: for Subcidal concentration: concentration slightly below the MFC; for MFC: mean value. As for the experimental part:
Minimal Fungicidal Concentration Determination
The minimal fungicidal concentration (MFC) values were determined as the lowest concentration of the extract that inhibited 100 percent growth of C. albicans standard strain (ATCC 10231) and clinical isolates.
Minimal Fungicidal Concentration Assay
The assay was initiated by pouring fresh sterile water aliquots (100 μl) into the wells of a microtitre plate. […] 50 μl of a 0.2 mg/ml aqueous solution of INT (Sigma) was added to each well. These suspensions were re-incubated at 35° C. for 24 h.

For series [4] the test system is unchanged. As to the kind of experiment: Re-inoculation and re-incubation of MIC wells, cidal/static effects. The format is cell-based. The following applies: for Growth after re-inoculation and re-incubation: 35° C. for 24 h.
The nature of the next series: in vitro. The conditions noted are these: LC50 (cytotoxicity).
The subject of a further series is Sporothrix schenckii. The following applies: cited from earlier work.
Another series deals with Microsporum canis. The following applies: cited from earlier work.
Series [5] has as its system S. aureus, Salmonella typhi, Vibrio cholera, Escherichia coli, Shigella spp. The following applies: cited from earlier work.
The next series relates to Candida albicans. The following applies: C. albicans; cited from earlier work.
In the next series the test system is Enterococcus feacalis. The following applies: cited from earlier work.
Series [6] relates to monkey kidney (Vero) cells. The conditions noted are these: cited from earlier work.
Setting [7] is: Candida albicans, C. albicans ATCC 10231, mean value, read-out: MIC.
The mark [8] stands for this setting: C. albicans 1051604, Amphotericin B 0.6 mg/ml.
Where [9] appears, read: C. albicans ATCC 10231, Amphotericin B 0.11 mg/ml.
The mark [10] stands for this setting: C. albicans M0824, Amphotericin B 0.6 mg/ml.

Values after ≈ are worked out from the molar mass of the structure shown. Where two headings read alike, the source gives them in different places.

Source text for in vitro: The MTT assay was used to determine the cytotoxicity of dried acetone extracts of H. caffrum (leaves); P. obliquum (leaves); R. melanophloeos (leaves) and S. birrea (stem bark) reconstituted in dimethyl sulphoxide (DMSO) against Mouse fibroblast cells (obtained from the Department of Plant Science, Faculty of Natural and Agricultural Sciences, University of Pretoria, South Africa).
MTT (yellow) is reduced into a formazan (purple) by viable cells. The colour intensity of the formazan produced, which is directly proportional to the number of viable cells, is measured using a spectrophotometer (Mosmann, 1983; Shai, 2007).
Cells were maintained in minimal essential medium (MEM) (Highveld Biological, South Africa) supplemented with 0.1% gentamicin (Virbac) and 5% foetal calf serum (Adcock-lngram). […] Dried crude plant extracts (100 mg) were reconstituted in 1 ml of DMSO and serial 10-fold dilutions of each extract were prepared in growth medium. The growth medium on sub-confluent monolayer cells grown overnight in microtitre plates was removed and cells were exposed to 200 μl of the extracts at different concentrations and incubated again at 37° C. for 5 days. Viability of cells was determined using the tetrazolium-based colorimetric assay (MTT assay) described by Mossmann (1983). Before the addition of MTT, the extract-containing medium on the cells was replaced with fresh culture medium to exclude reduction of the tetrazolium compound by plant extracts. The assay is based on mitochondrial dehydrogenase activity which is assessed by the reductive cleavage of the tetrazolium salt MTT [3-(4.5-dimethylthiazolyl)2.5-diphenyltetrazolium bromide] due to the succinic dehydrogenase present in living cells to yield a purple formazan dye. The cells were incubated with 30 μl of 5 mg/ml MTT in phosphate-buffered saline (PBS) for four hours. Thereafter, medium was removed and cells washed with PBS. DMSO (50 μl) was added to the cells and absorbance was measured using a Versamax microplate reader at 570 nm. Berberine chloride (Sigma) was used as a positive control, wells containing only cells acted as the negative control and a solvent control was also included. The percentage cell viability following the addition of varying concentrations of the extracts in relation to controls was calculated. The LC50 values were calculated (using SoftMax Pro4.8 Software) as the concentration of plant extracts resulting in 50 percent reduction of absorbance compared to untreated cells. Tests were carried out in quadruplicate and each experiment was repeated three times.

Consider `CC1(C)CC[C@]2(C)CC[C@]3(C)C(CCC4C5(C)CCC(O)C(C)(C)C5CC[C@]43C)C2C1` (stereo partly drawn) [Compound 1.2, β-amyrin], for which, in series [1] (setting [7]), the MIC amounted to 4 µg/mL (≈ 9.33 µM).
Regarding `C[C@@H]1[C@H](O)[C@@H](C)/C=C/C=C/C=C/C=C/C=C/C=C/C=C/[C@H](O[C@@H]2O[C@H](C)[C@@H](O)[C@H](N)[C@@H]2O)C[C@@H]2O[C@](O)(C[C@@H](O)C[C@@H](O)[C@H](O)CC[C@@H](O)C[C@@H](O)CC(=O)O[C@H]1C)C[C@H](O)[C@H]2C(=O)O` [Amphotericin B, reference compound], the MIC was 30 µg/mL (≈ 32.5 µM) in [1] (12 h incubation, C. albicans 1051255); 60 µg/mL (≈ 64.9 µM) in series [1] (12 h incubation, C. albicans 1051604); 110 µg/mL (≈ 119 µM) in [1] (12 h incubation, C. albicans 1051608); 110 µg/mL (≈ 119 µM) in series [1] (12 h incubation, C. albicans ATCC 10231); 30 µg/mL (≈ 32.5 µM) in [1] (12 h incubation, C. albicans M0824); 30 µg/mL (≈ 32.5 µM) in series [1] (12 h incubation, C. albicans M0825). In addition, the MIC in series [1] (12 h incubation, C. albicans M0826) is 60 µg/mL (≈ 64.9 µM); in series [1] (24 h incubation, C. albicans 1051255), 230 µg/mL (≈ 249 µM); in [1] (24 h incubation, C. albicans 1051604), 60 µg/mL (≈ 64.9 µM); in series [1] (24 h incubation, C. albicans 1051608), 110 µg/mL (≈ 119 µM); in series [1] (24 h incubation, C. albicans ATCC 10231) it was 110 µg/mL (≈ 119 µM); in series [1] (24 h incubation, C. albicans M0824), 110 µg/mL (≈ 119 µM). Further, the MIC came out at 60 µg/mL (≈ 64.9 µM) in series [1] (24 h incubation, C. albicans M0825); 110 µg/mL (≈ 119 µM) in [1] (24 h incubation, C. albicans M0826); 110 µg/mL (≈ 119 µM) in series [1] (C. albicans ATCC 10231, mean value); 30 µg/mL (≈ 32.5 µM) in series [1] (C. albicans clinical isolate 1051255, mean value); 60 µg/mL (≈ 64.9 µM) in series [1] (C. albicans clinical isolate 1051604, mean value); 110 µg/mL (≈ 119 µM) in series [1] (C. albicans clinical isolate 1051608, mean value). Besides, the MIC came out at 30 µg/mL (≈ 32.5 µM) in series [1] (C. albicans clinical isolate M0824, mean value); 30 µg/mL (≈ 32.5 µM) in series [1] (C. albicans clinical isolate M0825, mean value); 60 µg/mL (≈ 64.9 µM) in [1] (C. albicans clinical isolate M0826, mean value). In addition, the entries for the “Number of yeast per 100 HBEC” value in series [2] (setting [8]) and in [2] (setting [10]) were 10 and 12, respectively. For the same compound, the entries for the “Reduction in adherence %” value in [2] (setting [8]), in series [2] (setting [9]) and in series [2] (setting [10]) were 95.05%, 38.42% and 93.41%, respectively. The “Number of yeast cells per 100 HBEC” value in series [2] (setting [9]) came to 109. Also, the Subcidal concentration in series [3] (C. albicans 1051604) is 0.06; in series [3] (C. albicans ATCC 10231), 0.11; in series [3] (C. albicans M0824), 0.06. Besides, the MFC in [3] (C. albicans ATCC 10231) worked out at 110 µg/mL (≈ 119 µM); in series [3] (C. albicans clinical isolate 1051255), 230 µg/mL (≈ 249 µM); in series [3] (C. albicans clinical isolate 1051604) it was 60 µg/mL (≈ 64.9 µM); in series [3] (C. albicans clinical isolate 1051608), 110 µg/mL (≈ 119 µM); in series [3] (C. albicans clinical isolate M0824), 110 µg/mL (≈ 119 µM); in [3] (C. albicans clinical isolate M0825), 60 µg/mL (≈ 64.9 µM). Moreover, in series [3] (C. albicans clinical isolate M0826), the MFC was determined as 110 µg/mL (≈ 119 µM). The Cidal/static effects result in series [4] (C. albicans 1051255) and in [4] (C. albicans M0824) was “static” each time. The “Growth after re-inoculation and re-incubation” value in series [4] (C. albicans 1051255) and in series [4] (C. albicans M0824) was “yes” each time.
`COc1ccc2cc3[n+](cc2c1OC)CCc1cc2c(cc1-3)OCO2` [Berberine, Berberine chloride, reference compound] registered a CC50 at 5 days in the series “in vitro” (mouse) of 9.04 µg/mL.
For `C=C(C)[C@@H]1CC[C@]2(C)CC[C@]3(C)[C@H](CC[C@@H]4[C@@]5(C)CC[C@H](O)C(C)(C)[C@@H]5CC[C@]43C)[C@@H]12` [Compound 1.1, Lupeol], in series [1] (setting [7]), the MIC was 4 µg/mL (≈ 9.37 µM). The “MIC (Shai et al., 2008)” value in the series on Sporothrix schenckii is 12 µg/mL (≈ 28.1 µM); in the series with Microsporum canis, 16 µg/mL (≈ 37.5 µM); in the series on Candida albicans it was 250 µg/mL (≈ 586 µM); with Enterococcus feacalis, 63 µg/mL (≈ 148 µM). In the series “in vitro” (mouse fibroblast cells, MTT, 5 days), the half-maximal cytotoxic concentration (CC50) at 5 days was determined as 0.00148 µg/mL (≈ 0.00347 µM). Also, in series [5], the “MIC (Mathabe et al., 2008)” value is more than 200 µg/mL. For the same compound, the “cytotoxic LC50 (Shai et al., 2008)” value in series [6] is 89.5 µg/mL.
